In the OligoGym collection one finds target mRNA inhibition data, which are given here for 37 sequences.

Values joined by “and” are separate entries in the source; they are usually repeats but may differ in a detail not shown here. Equal entries are not always repeated. After the bases stand the sugars from the 5' end (letter, count) and the backbone: PS all phosphorothioate, else s phosphorothioate and o phosphodiester by linkage. Methylation of C is not given here. e = 2'-O-(2-methoxyethyl) (MOE); d = 2'-deoxy (DNA)

The series concerns the target DGAT2. The conditions noted are these: ASO.

With “GGACCCACTGGAGCACTGAG (sugars e2 d13 e5, PS)”, the target mRNA inhibition reads like this: (HepG2, 0.12 µM) 86%; (HepG2, 2.5 µM) 24%; (HepG2, 10 µM) 28%; (HepG2, 20 µM) 67%. Sequence “CCACCACCTAGAACAGGGCA (sugars e5 d10 e5, PS)” registered a target mRNA inhibition (HepG2, 0.12 µM) of 55%. In the case of “ACTCAAAAATATACATGCTC (sugars e5 d10 e5, PS)”, the target mRNA inhibition stood at 67% (HepG2, 2.5 µM) and 92% (HepG2, 10 µM). For the sequence “CATACTAGACTATGCAGCCT (sugars e5 d10 e5, PS)”, the target mRNA inhibition (HepG2, 2.5 µM) is 89% and 69%; the target mRNA inhibition (HepG2, 10 µM) is 97% and 93%. Regarding “GACCTATTGAGCCAGGTGAC (sugars e5 d10 e5, PS)”, the target mRNA inhibition (HepG2, 0.12 µM) is 36%. For the sequence “TGGCTCTCTAGATAGGGTGG (sugars e5 d10 e5, PS)”, the target mRNA inhibition (HepG2, 2.5 µM) is 84% and 85%; the target mRNA inhibition (HepG2, 10 µM) was 89% and 87%. “GCCAGGCCCCTTCTGAAGAG (sugars e5 d10 e5, PS)” yielded a target mRNA inhibition (HepG2, 0.12 µM) of 36%. As for “GTCTGGGAACAGCAGCATCA (sugars e5 d10 e5, PS)”, the target mRNA inhibition runs as follows: (HepG2, 2.5 µM) 72%; (HepG2, 10 µM) 89%.

In the case of “TCTTCTGGACCCATCGGCCC (sugars e5 d10 e5, PS)”, where the note is “HepG2, 0.12 µM”, the target mRNA inhibition was 37%.

Turning to “GTATCCTTAAAGCAGGGCCC (sugars e5 d10 e5, PS)”, the target mRNA inhibition was 84% and 81% (HepG2, 2.5 µM); 85% and 89% (HepG2, 10 µM). As to “GTCTGTGCTGCATCCATGTC (sugars e5 d10 e5, PS)”, the target mRNA inhibition is, setting by setting: (HepG2, 2.5 µM) 41% and 50%; (HepG2, 10 µM) 74%.

As to “CACTGGAGCACTGAGATGAC (sugars e3 d14 e3, PS)”, the target mRNA inhibition (HepG2, 0.12 µM) was found to be 55%. On to “TGCAGCTAATGATACAAGGT (sugars e5 d10 e5, PS)”, for which the target mRNA inhibition came to 67% (HepG2, 2.5 µM) and 89% (HepG2, 10 µM).

For the setting “HepG2, 0.12 µM”, “TCAAACCTAGGTTCAGACTT (sugars e5 d10 e5, PS)” gave a target mRNA inhibition of 47%.

“ATGACCTTGGGTCAGAGGAA (sugars e5 d10 e5, PS)”: the target mRNA inhibition is, setting by setting: (HepG2, 2.5 µM) 61%; (HepG2, 10 µM) 46%. Turning to “ACTTTTTCCTTCTTAAAAAA (sugars e5 d10 e5, PS)”, the target mRNA inhibition (HepG2, 0.12 µM) was 0%. Regarding “AACTTAGGCATGCTTCCTCC (sugars e5 d10 e5, PS)”, the target mRNA inhibition (HepG2, 2.5 µM) was 44% and the target mRNA inhibition (HepG2, 10 µM) came out at 89%.

Consider “GGTTCCGCAGGGTGACTGCA (sugars e5 d10 e5, PS)”, for which the target mRNA inhibition (HepG2, 2.5 µM) was 48% and the target mRNA inhibition (HepG2, 10 µM) is 68%. For the sequence “GACAGGACCCACTGGAGCAC (sugars e2 d13 e5, PS)”, for the setting “HepG2, 0.12 µM”, the target mRNA inhibition turned out to be 73%. Same read-out and setting: as for “AGTAGTCTCGAAAGTAGCGC (sugars e5 d10 e5, PS)”, the figure is 39%; as for “TTGCCAGGCATGGAGCTCAG (sugars e5 d10 e5, PS)”, 37%. Consider “AGTAAGCCTCGGTGTCCTCT (sugars e5 d10 e5, PS)”, for which the target mRNA inhibition reads like this: (HepG2, 2.5 µM) 61% and 76% and 75%; (HepG2, 10 µM) 92% and 91% and 95%. As for “GGCCAAGGACAGAGGTTCAA (sugars e5 d10 e5, PS)”, the target mRNA inhibition reads like this: (HepG2, 2.5 µM) 60%; (HepG2, 10 µM) 87%.

For “AGGAAGGAAATGCTAGGCCT (sugars e5 d10 e5, PS)”, the target mRNA inhibition (HepG2, 0.12 µM) stood at 64%.

Take “ACAGGACCCACTGGAGCACT (sugars e2 d13 e5, PS)”: where the note is “HepG2, 0.12 µM”, the target mRNA inhibition worked out at 68%. For the sequence “TGTGACCTTGGGATAGTCCC (sugars e5 d10 e5, PS)”, the target mRNA inhibition is, setting by setting: (HepG2, 2.5 µM) 63%; (HepG2, 10 µM) 87%. In the case of “CCAGTTTCGGACCCACTGTG (sugars e3 d14 e3, PS)”, the target mRNA inhibition (HepG2, 0.12 µM) was 82%.

“CCAATGCACCTTGTATTAAA (sugars e5 d10 e5, PS)”: the target mRNA inhibition was 72% (HepG2, 2.5 µM) and 92% (HepG2, 10 µM). Consider “ACACCAGGATCTCAGTCACT (sugars e5 d10 e5, PS)”, for which the target mRNA inhibition (HepG2, 0.12 µM) came out at 42%. “AATAACCCACAGACACCCAT (sugars e5 d10 e5, PS)” gave a target mRNA inhibition (HepG2, 0.12 µM) of 0%. With “GCATTCTTGCCAGGCATGGA (sugars e5 d10 e5, PS)”, the target mRNA inhibition worked out at 41% (HepG2, 2.5 µM) and 74% (HepG2, 10 µM). Regarding “AGTCTTCCTTCTCCTCCACC (sugars e5 d10 e5, PS)”, the target mRNA inhibition is, setting by setting: (HepG2, 2.5 µM) 69%; (HepG2, 10 µM) 84%. Take “ACCACAGCGATAATCACACA (sugars e5 d10 e5, PS)”: the target mRNA inhibition came to 54% (HepG2, 2.5 µM) and 89% (HepG2, 10 µM). Turning to “AATGTCACAAGTTCACAAAC (sugars e5 d10 e5, PS)”, the target mRNA inhibition (HepG2, 0.12 µM) came out at 4%. For “GCACTAAGCTAGGCACACCC (sugars e5 d10 e5, PS)”, the target mRNA inhibition was 62% (HepG2, 2.5 µM) and 90% (HepG2, 10 µM). In the case of “TCACCAGGGCCTCCATGTAC (sugars e3 d14 e3, PS)”, the target mRNA inhibition (HepG2, 0.12 µM) came out at 68%. Turning to “CACCAGGGCCTCCATGTACA (sugars e5 d10 e5, PS)”, the target mRNA inhibition (HepG2, 2.5 µM) was found to be 31%; the target mRNA inhibition (HepG2, 10 µM) came out at 69%; the target mRNA inhibition (HepG2, 20 µM) amounted to 26%.
